According to patent US11059819B2, “Fused hetero-hetero bicyclic compounds and methods of use thereof” (Araxes Pharma LLC, priority 2017, dated 2021):

Target: T1, KRAS G12C 1-169, his-tagged protein, GDP-loaded (Homo sapiens, UniProt P01116, G12C)
T1 construct: KRAS G12C 1-169, his-tagged protein, GDP-loaded
Experiment: Biochemical assay: covalent modification of KRAS G12C measured by mass spectrometry (RapidFire/TOF or Q-Exactive)
Format: binding
Settings: compound concentration and incubation time not given
Protocol: Test compounds are prepared as 10 mM stock solutions in DMSO (Fisher cat #BP-231-100). KRAS G12C 1-169, his-tagged protein, GDP-loaded is diluted to 2 μM or 0.5 μM in buffer (20 mM Hepes, 150 mM NaCl, 1 mM MgCl2). Compounds are tested for activity as follows:
Compounds are diluted to 50× final test concentration in DMSO in 96-well storage plates. Compound stock solutions are vortexed before use and observed carefully for any sign of precipitation. Dilutions are as follow: • For 100 μM final compound concentration, compounds are diluted to 5000 μM (5 μL 10 mM compound stock+5 μL DMSO and mixed well by pipetting. • For 30 μM final compound concentration, compounds are diluted to 1500 μM (3 μI, 10 mM compound stock+17 μL DMSO) and mixed well by pipetting. • For 10 μM final compound concentration, compounds are diluted to 500 μM (2 μL 10 mM compound stock+38 μL DMSO) and mixed well by pipetting. 49 μL of the stock protein solution is added to each well of a 96-well PCR plate (Fisher cat #1423027). 1 μl of the diluted 50× compounds are added to appropriate wells in the PCR plate using 12-channel pipettor. Reactions are mixed carefully and thoroughly by pipetting up/down with a 200 μL multi-channel pipettor. […] The plate is then resealed with aluminum seal and stored on dry ice until analyzed as described below.
The above described assays are analyzed by mass spectrometry according to one of the following two procedures: […]
After another 30 minute equilibration time, a blank batch (i.e., buffer) is run to ensure equipment is operating properly. […] The method is then run and masses of each individual well recorded. […]
The masses and peak intensities of KRAS G12C protein species are measured using a Dionex RSLCnano system (Thermo Scientific) connected to a Q Exactive Plus mass spectrometer (Thermo Scientific). […]
The mass spectrometer is operated in profile mode at a resolution of 17500, 5 microscans, using 50 msec max injection time and an AGC target of 1×10^6, and a full mass range from 800-1850 m/z is recorded. […]

T1 sequence (P01116 1-169 isoform P01116-2 G12C): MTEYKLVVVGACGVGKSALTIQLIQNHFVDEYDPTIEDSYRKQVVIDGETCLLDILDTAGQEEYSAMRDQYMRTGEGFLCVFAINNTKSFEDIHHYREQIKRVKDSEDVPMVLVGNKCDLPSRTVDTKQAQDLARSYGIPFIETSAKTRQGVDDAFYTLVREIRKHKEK

SMILES | Binding %
C=CC(=O)N1CC(n2cc(C)c3cncc(Nc4c(C)ccc5[nH]ncc45)c3c2=O)C1 [Compound 57, 2-(1-acryloylazetidin-3-yl)-4-methyl-8-((5-methyl-1H-indazol-4-yl)amino)-2,6-naphthyridin-1(2H)-one] | + (+ indicates binding activity up to 5%)
C=CC(=O)N1CC(n2cnc3c(Nc4cc(O)cc5ccccc45)cncc3c2=O)C1 [Compound 56, 3-(1-acryloylazetidin-3-yl)-8-((3-hydroxynaphthalen-1-yl)amino)pyrido[4,3-d]pyrimidin-4(3H)-one] | + (+ indicates binding activity up to 5%)
C=CC(=O)N1CC(n2cnc3c(Nc4c(C)ccc5cn[nH]c45)cncc3c2=O)C1 [Compound 55, 3-(1-acryloylazetidin-3-yl)-8-((6-methyl-1H-indazol-7-yl)amino)pyrido[4,3-d]pyrimidin-4(3H)-one] | + (+ indicates binding activity up to 5%)
